Measurements from patent US20250144179A1, “PEPTIDE HORMONE TO PREVENT OR TREAT VASOSPASM, BRAIN INJURY OR CEREBRAL EDEMA” (UNIVERSITY OF FLORIDA RESEARCH FOUNDATION, INCORPORATED, priority 2022, published 2025).

Assays:
Assay type in all cases: in vivo, mouse
[1] = tested on: wild-type mice, SAH model; experiment: Sodium fluorescein extravasation assay (blood-brain barrier permeability) after SAH; conditions: 24 hours post-SAH, adropin 450 nmol/kg i.p.
Description: (§1) Synthetic adropin^34-76 peptide was supplied from Bachem (Bubendorf, Switzerland) and diluted in 0.1% BSA in saline. 0.1% BSA in saline was used as vehicle control for all experiments. Adropin (450 nmol/kg) or an equivalent volume of vehicle was delivered via intraperitoneal injection 15 minutes post-SAH. For experiments ending at 24 hours post-SAH, an identical dose of adropin/vehicle was given again 12 hours later. For experiments ending 7 days post-SAH, adropin/vehicle was given again on days 1, 3 & 5 post-SAH. In the aneurysm rupture model, adropin was given at a dose of 450 nmol/kg starting 3 days before aneurysm induction (elastase injection). Adropin was given every other day until sacrifice
(§2) SAH was modeled using the anterior circulation single autologous blood injection method^25,33 with minor adjustments. Mice were anesthetized with ketamine (100 mg/kg) and xylazine (10 mg/kg) before removing hair from scalp and cleaning with serial betadine—saline washes. The tail was also prepped from the base extending 1 cm distally. Mice were then fixed into a stereotaxic frame and body temperature maintained at 37° C. The scalp was incised along the sagittal suture from bregma to the nasal bone. The skin was reflected and a burr hole was drilled 5.0 mm rostral of bregma and 0.5 mm right laterally to avoid puncturing dural venous sinuses. […]

[2] = tested on: wild-type mice, SAH model; experiment: Fibrinogen immunostaining for microthrombi after SAH; conditions: 24 hours post-SAH, adropin 450 nmol/kg i.p.
Description: as §1
SAH was modeled using the anterior circulation single autologous blood injection method^25,33 with minor adjustments. […]
Following perfusion-fixation and overnight post-fixation in 4% PFA, brain samples were embedded in paraffin wax and cut into […] sections with a Leica RM2125 RTS microtome (Leica Microsystems, Buffalo Grove, New York) and adhered to poly-L-lysine-coated glass slides. […] Primary antibodies were detected using donkey anti-rabbit IgG AlexaFluor594, donkey anti-rabbit IgG AlexaFluor488, donkey anti-rat IgG AlexaFluor594, or donkey anti-goat IgG AlexaFluor488 (all from ThermoFisher, Waltham, Massachusetts). […] All images were analyzed by two blinded observers.

[3] = tested on: wild-type mice, SAH model; experiment: Cerebral blood flow by laser speckle contrast imaging after SAH; conditions: day 1 post-SAH, adropin 450 nmol/kg i.p.
Description: as §1
SAH was modeled using the anterior circulation single autologous blood injection method^25,33 with minor adjustments. Mice were anesthetized with ketamine (100 mg/kg) and xylazine (10 mg/kg) before removing hair from scalp and cleaning with serial betadine—saline washes. The tail was also prepped from the base extending 1 cm distally. Mice were then fixed into a stereotaxic frame and body temperature maintained at 37° C. […]
One day post-SAH, animals were anesthetized with ketamine/xylazine as described above, placed in a supine position in a stereotaxic frame. […] Blood flow (perfusion) values are calculated using PIMsoft software (PeriMed AB, Stockholm, Sweden) as arbitrary “perfusion units”. […]

[4] = tested on: wild-type mice, SAH model; experiment: Corner-turn preference test (sensorimotor deficits) after SAH
Description: Synthetic adropin^34-76 peptide was supplied from Bachem (Bubendorf, Switzerland) and diluted in 0.1% BSA in saline. 0.1% BSA in saline was used as vehicle control for all experiments. […] For experiments ending at 24 hours post-SAH, an identical dose of adropin/vehicle was given again 12 hours later. For experiments ending 7 days post-SAH, adropin/vehicle was given again on days 1, 3 & 5 post-SAH. In the aneurysm rupture model, adropin was given at a dose of 450 nmol/kg starting 3 days before aneurysm induction (elastase injection). Adropin was given every other day until sacrifice
as §2

For “adropin (CHSRSADVDSLSESSPNSSPGPCPEKAPPPQKPSHEGSYLLQP) [Synthetic adropin^34-76 peptide from Bachem]”, the “barrier permeability, average area of positive fluorescein signal” value [1] was “adropin treatment reduced this effect”, the “number of microthrombi (fibrinogen immunostaining)” value [2] was “adropin treatment completely abolished this effect” and the “cerebral blood flow (CBF), perfusion” value [3] was “adropin treatment restored CBF back to baseline”. For the same substance, the sensorimotor deficits ([4]; treatment initiated at 24 hours post-SAH) was “ability of adropin treatment to improve sensorimotor deficits was maintained” and the “corner turn preference (sensorimotor deficit)” value ([4]; up to one week post-SAH, treatment started 15 minutes post-SAH) was “reducing this sensorimotor deficit and normalizing corner turn preference”.
